Read-outs that look alike come from different tables or passages of the source.
Assays:
[1] = test system: Key Broadleaf Weed and Crop Species; assay: Post-Emergent Test II: postemergent herbicidal activity, visual rating after 14 d (Table 7); type: in vivo; details: post-emergence, 336 h; for pest or weed control at 35 g/ha: 35 g ai/ha; for pest or weed control at 70 g/ha: 70 g ai/ha; for pest or weed control at 140 g/ha: 140 g ai/ha
In short: (§1)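 Post-emergence foliar spray, 187 L/ha, first/second true leaf stage plants in potting mix (pH 6.0-6.8). Rates: top rate and 2-fold serial dilutions to 1/16×. Solvent-blank controls. Readout: visual % kill at 14 d.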

[2] = test system: Key Grass and Sedge Weeds as well as Grass Crops; assay: Post-Emergent Test II: postemergent herbicidal activity, visual rating after 14 d (Table 8); type: in vivo; details: post-emergence, 336 h; for pest or weed control at 35 g/ha: 35 g ai/ha; for pest or weed control at 70 g/ha: 70 g ai/ha; for pest or weed control at 140 g/ha: 140 g ai/ha
In short: as §1

[3] = lambsquarters (Chenopodium album), read-out: Visual Growth Reduction (%) 14 Days After Application CHEAL
[4] = oilseed rape, canola (Brassica napus), read-out: Visual Growth Reduction (%) 14 Days After Application BRSNN
[5] = redroot pigweed (Amaranthus retroflexus), read-out: Visual Growth Reduction (%) 14 Days After Application AMARE
[6] = sunflower (Helianthus annuus), read-out: Visual Growth Reduction (%) 14 Days After Application HELAN
[7] = velvetleaf (Abutilon theophrasti), read-out: Visual Growth Reduction (%) 14 Days After Application ABUTH
[8] = wild poinsettia (Euphorbia heterophylla), read-out: Visual Growth Reduction (%) 14 Days After Application EPHHL
[9] = barnyardgrass (Echinochloa crus-galli), read-out: Visual Growth Reduction (%) 14 Days After Application ECHCG
[10] = giant foxtail (Setaria faberi), read-out: Visual Growth Reduction (%) 14 Days After Application SETFA
[11] = maize, corn (Zea mays), read-out: Visual Growth Reduction (%) 14 Days After Application ZEAMX
[12] = rice (Oryza sativa), read-out: Visual Growth Reduction (%) 14 Days After Application ORYSA
[13] = wheat, spring (Triticum aestivum), read-out: Visual Growth Reduction (%) 14 Days After Application TRZAS
[14] = yellow nutsedge (Cyperus esculentus), read-out: Visual Growth Reduction (%) 14 Days After Application CYPES

SMILES	pest or weed control at 35 g/ha [1, 3] [%]	pest or weed control at 70 g/ha [1, 3] [%]	pest or weed control at 140 g/ha [1, 3] [%]	pest or weed control at 35 g/ha [1, 4] [%]	pest or weed control at 70 g/ha [1, 4] [%]	pest or weed control at 140 g/ha [1, 4] [%]	pest or weed control at 35 g/ha [1, 5] [%]	pest or weed control at 70 g/ha [1, 5] [%]	pest or weed control at 140 g/ha [1, 5] [%]	pest or weed control at 35 g/ha [1, 6] [%]	pest or weed control at 70 g/ha [1, 6] [%]	pest or weed control at 140 g/ha [1, 6] [%]	pest or weed control at 35 g/ha [1, 7] [%]	pest or weed control at 70 g/ha [1, 7] [%]	pest or weed control at 140 g/ha [1, 7] [%]	pest or weed control at 35 g/ha [1, 8] [%]	pest or weed control at 70 g/ha [1, 8] [%]	pest or weed control at 140 g/ha [1, 8] [%]	pest or weed control at 35 g/ha [2, 9] [%]	pest or weed control at 70 g/ha [2, 9] [%]	also measured
COC(=O)c1nc(-c2ccc3c(c2)OC(F)(F)O3)c(C)c(N)c1Cl [Compound 49]	0 to 29	30 to 44	85 to 94	0 to 29	0 to 29	0 to 29	0 to 29	0 to 29	0 to 29	85 to 94	85 to 94	95 to 100	0 to 29	0 to 29	30 to 44	0 to 29	0 to 29	0 to 29	0 to 29	0 to 29	pest or weed control at 140 g/ha [2, 9]: 0 to 29%; pest or weed control at 35 g/ha [2, 10]: 0 to 29%; pest or weed control at 70 g/ha [2, 10]: 0 to 29%; pest or weed control at 140 g/ha [2, 10]: 0 to 29%; pest or weed control at 35 g/ha [2, 11]: 30 to 44%; pest or weed control at 70 g/ha [2, 11]: 60 to 74%; pest or weed control at 140 g/ha [2, 11]: 60 to 74%; pest or weed control at 35 g/ha [2, 12]: 0 to 29%; pest or weed control at 70 g/ha [2, 12]: 0 to 29%; pest or weed control at 140 g/ha [2, 12]: 0 to 29%; pest or weed control at 35 g/ha [2, 13]: 0 to 29%; pest or weed control at 70 g/ha [2, 13]: 30 to 44%; pest or weed control at 140 g/ha [2, 13]: 30 to 44%; pest or weed control at 35 g/ha [2, 14]: 0 to 29%; pest or weed control at 70 g/ha [2, 14]: 0 to 29%; pest or weed control at 140 g/ha [2, 14]: 0 to 29%
Cc1c(-c2ccc3c(c2)OC(F)(F)O3)nc(C(=O)O)c(Cl)c1N [Compound 52]	0 to 29	0 to 29	0 to 29	0 to 29	0 to 29	0 to 29	0 to 29	0 to 29	0 to 29	85 to 94	95 to 100	95 to 100	0 to 29	0 to 29	0 to 29	0 to 29	0 to 29	0 to 29	45 to 59	60 to 74	pest or weed control at 140 g/ha [2, 9]: 75 to 84%; pest or weed control at 35 g/ha [2, 10]: 0 to 29%; pest or weed control at 70 g/ha [2, 10]: 0 to 29%; pest or weed control at 140 g/ha [2, 10]: 45 to 59%; pest or weed control at 35 g/ha [2, 11]: 60 to 74%; pest or weed control at 70 g/ha [2, 11]: 60 to 74%; pest or weed control at 140 g/ha [2, 11]: 60 to 74%; pest or weed control at 35 g/ha [2, 12]: 0 to 29%; pest or weed control at 70 g/ha [2, 12]: 0 to 29%; pest or weed control at 140 g/ha [2, 12]: 0 to 29%; pest or weed control at 35 g/ha [2, 13]: 0 to 29%; pest or weed control at 70 g/ha [2, 13]: 30 to 44%; pest or weed control at 140 g/ha [2, 13]: 30 to 44%; pest or weed control at 35 g/ha [2, 14]: 0 to 29%; pest or weed control at 70 g/ha [2, 14]: 0 to 29%; pest or weed control at 140 g/ha [2, 14]: 0 to 29%
COC(=O)c1nc(-c2ccc3c(c2)OC(C)(C)O3)nc(N)c1Cl [Compound 55]	45 to 59	60 to 74	75 to 84	0 to 29	0 to 29	0 to 29	45 to 59	85 to 94	95 to 100	45 to 59	60 to 74	75 to 84	75 to 84	75 to 84	75 to 84	95 to 100	95 to 100	95 to 100	75 to 84	75 to 84	pest or weed control at 140 g/ha [2, 9]: 75 to 84%; pest or weed control at 35 g/ha [2, 10]: 75 to 84%; pest or weed control at 70 g/ha [2, 10]: 85 to 94%; pest or weed control at 140 g/ha [2, 10]: 85 to 94%; pest or weed control at 35 g/ha [2, 11]: 60 to 74%; pest or weed control at 70 g/ha [2, 11]: 60 to 74%; pest or weed control at 140 g/ha [2, 11]: 60 to 74%; pest or weed control at 35 g/ha [2, 12]: 0 to 29%; pest or weed control at 70 g/ha [2, 12]: 0 to 29%; pest or weed control at 140 g/ha [2, 12]: 0 to 29%; pest or weed control at 35 g/ha [2, 13]: 0 to 29%; pest or weed control at 70 g/ha [2, 13]: 0 to 29%; pest or weed control at 140 g/ha [2, 13]: 0 to 29%; pest or weed control at 35 g/ha [2, 14]: 0 to 29%; pest or weed control at 70 g/ha [2, 14]: 0 to 29%; pest or weed control at 140 g/ha [2, 14]: 0 to 29%
COC(=O)c1nc(-c2cc3c(cc2F)OC(F)(F)O3)nc(N)c1Cl [Compound 56]	0 to 29	0 to 29	0 to 29	0 to 29	0 to 29	0 to 29	0 to 29	0 to 29	0 to 29	85 to 94	85 to 94	85 to 94	0 to 29	0 to 29	0 to 29	60 to 74	95 to 100	95 to 100	75 to 84	75 to 84	pest or weed control at 140 g/ha [2, 9]: 95 to 100%; pest or weed control at 35 g/ha [2, 10]: 60 to 74%; pest or weed control at 70 g/ha [2, 10]: 75 to 84%; pest or weed control at 140 g/ha [2, 10]: 75 to 84%; pest or weed control at 35 g/ha [2, 11]: 45 to 59%; pest or weed control at 70 g/ha [2, 11]: 60 to 74%; pest or weed control at 140 g/ha [2, 11]: 75 to 84%; pest or weed control at 35 g/ha [2, 12]: 0 to 29%; pest or weed control at 70 g/ha [2, 12]: 0 to 29%; pest or weed control at 140 g/ha [2, 12]: 0 to 29%; pest or weed control at 35 g/ha [2, 13]: 0 to 29%; pest or weed control at 70 g/ha [2, 13]: 30 to 44%; pest or weed control at 140 g/ha [2, 13]: 30 to 44%; pest or weed control at 35 g/ha [2, 14]: 0 to 29%; pest or weed control at 70 g/ha [2, 14]: 45 to 59%; pest or weed control at 140 g/ha [2, 14]: 45 to 59%

Source: US9149038B2, “4-amino-6-(heterocyclic)picolinates and 6-amino-2-(heterocyclic)pyrimidine-4-carboxylates and their use as herbicides” (Dow AgroSciences LLC, priority 2013, dated 2015)
